Results as given in ChEMBL document CHEMBL3751764, “Synthesis and in vitro antiproliferative activity of novel pyrazolo[3,4-d]pyrimidine derivatives” (Medchemcomm, 2015).

Key:
[1] = Cytotoxicity against human DU145 cells assessed as cell growth at 10 uM after 72 hrs by SRB assay relative to control; assay type: functional; settings: DU-145, 72 h, read-out: Activity
[2] = test system: KM12; experiment: Cytotoxicity against human KM12 cells assessed as cell growth at 10 uM after 72 hrs by SRB assay relative to control; assay type: functional; settings: KM12, 72 h, read-out: Activity
[3] = Cytotoxicity against human SF268 cells assessed as cell growth at 10 uM after 72 hrs by SRB assay relative to control; assay type: functional; settings: SF-268, 72 h, read-out: Activity
[4] = Cytotoxicity against human UO31 cells assessed as cell growth at 10 uM after 72 hrs by SRB assay relative to control; assay type: functional; settings: UO-31, 72 h, read-out: Activity
[5] = test system: HT-29; experiment: Cytotoxicity against human HT-29 cells assessed as cell growth at 10 uM after 72 hrs by SRB assay relative to control; assay type: functional; settings: HT-29, 72 h, read-out: Activity
[6] = test system: ACHN; experiment: Cytotoxicity against human ACHN cells assessed as cell growth at 10 uM after 72 hrs by SRB assay relative to control; assay type: functional; settings: read-out: Activity
[7] = Cytotoxicity against human BT549 cells assessed as cell growth at 10 uM after 72 hrs by SRB assay relative to control; assay type: functional; settings: BT-549, 72 h, read-out: Activity
[8] = Cytotoxicity against human HCT15 cells assessed as cell growth at 10 uM after 72 hrs by SRB assay relative to control; assay type: functional; settings: HCT-15, 72 h, read-out: Activity
[9] = Cytotoxicity against human IGROV1 cells assessed as cell growth at 10 uM after 72 hrs by SRB assay relative to control; assay type: functional; settings: IGROV-1, 72 h, read-out: Activity
[10] = Cytotoxicity against human COLO205 cells assessed as cell growth at 10 uM after 72 hrs by SRB assay relative to control; assay type: functional; settings: COLO 205, 72 h, read-out: Activity
[11] = test system: NCI-H322M; experiment: Cytotoxicity against human NCI-H322M cells assessed as cell growth at 10 uM after 72 hrs by SRB assay relative to control; assay type: functional; settings: read-out: Activity
[12] = test system: NCI-H226; experiment: Cytotoxicity against human NCI-H226 cells assessed as cell growth at 10 uM after 72 hrs by SRB assay relative to control; assay type: functional; settings: NCI-H226, 72 h, read-out: Activity
[13] = Cytotoxicity against human HOP62 cells assessed as cell growth at 10 uM after 72 hrs by SRB assay relative to control; assay type: functional; settings: HOP-62, 72 h, read-out: Activity
[14] = Cytotoxicity against human HOP92 cells assessed as cell growth at 10 uM after 72 hrs by SRB assay relative to control; assay type: functional; settings: HOP-92, 72 h, read-out: Activity
[15] = test system: SK-MEL-28; experiment: Cytotoxicity against human SK-MEL-28 cells assessed as cell growth at 10 uM after 72 hrs by SRB assay relative to control; assay type: functional; settings: SK-MEL-28, 72 h, read-out: Activity
[16] = Cytotoxicity against human OVCAR4 cells assessed as cell growth at 10 uM after 72 hrs by SRB assay relative to control; assay type: functional; settings: OVCAR-4, 72 h, read-out: Activity
[17] = Cytotoxicity against human NCI-ADR-RES cells assessed as cell growth at 10 uM after 72 hrs by SRB assay relative to control; assay type: functional; settings: read-out: Activity
[18] = target: Vascular endothelial growth factor receptor 2 (Homo sapiens, UniProt P35968); experiment: Inhibition of human VEGFR2 at 10 uM after 20 to 40 mins by liquid scintillation counting analysis in presence of […]; set-up: scale not given: the % may be the effect or the level left
[19] = Cytotoxicity against human OVCAR5 cells assessed as cell growth at 10 uM after 72 hrs by SRB assay relative to control; assay type: functional; settings: OVCAR-5, 72 h, read-out: Activity
[20] = test system: M14; experiment: Cytotoxicity against human M14 cells assessed as cell growth at 10 uM after 72 hrs by SRB assay relative to control; assay type: functional; settings: M14, 72 h, read-out: Activity
[21] = Cytotoxicity against human PC3 cells assessed as cell growth at 10 uM after 72 hrs by SRB assay relative to control; assay type: functional; settings: PC-3, 72 h, read-out: Activity
[22] = test system: SK-MEL-5; experiment: Cytotoxicity against human SK-MEL-5 cells assessed as cell growth at 10 uM after 72 hrs by SRB assay relative to control; assay type: functional; settings: SK-MEL-5, 72 h, read-out: Activity
[23] = Cytotoxicity against human OVCAR3 cells assessed as cell growth at 10 uM after 72 hrs by SRB assay relative to control; assay type: functional; settings: OVCAR-3, 72 h, read-out: Activity
[24] = test system: K562; experiment: Cytotoxicity against human K562 cells assessed as cell growth at 10 uM after 72 hrs by SRB assay relative to control; assay type: functional; settings: K562, 72 h, read-out: Activity
[25] = Cytotoxicity against human SNB19 cells assessed as cell growth at 10 uM after 72 hrs by SRB assay relative to control; assay type: functional; settings: SNB-19, 72 h, read-out: Activity
[26] = test system: T47D; experiment: Cytotoxicity against human T47D cells assessed as cell growth at 10 uM after 72 hrs by SRB assay relative to control; assay type: functional; settings: read-out: Activity
[27] = Cytotoxicity against human SW620 cells assessed as cell growth at 10 uM after 72 hrs by SRB assay relative to control; assay type: functional; settings: SW-620, 72 h, read-out: Activity
[28] = Cytotoxicity against human HL-60(TB) cells assessed as cell growth at 10 uM after 72 hrs by SRB assay relative to control; assay type: functional; settings: HL-60, 72 h, read-out: Activity
[29] = Cytotoxicity against human RPMI8226 cells assessed as cell growth at 10 uM after 72 hrs by SRB assay relative to control; assay type: functional; settings: RPMI-8226, 72 h, read-out: Activity
[30] = Cytotoxicity against human OVCAR8 cells assessed as cell growth at 10 uM after 72 hrs by SRB assay relative to control; assay type: functional; settings: OVCAR-8, 72 h, read-out: Activity
[31] = Cytotoxicity against human SKOV3 cells assessed as cell growth at 10 uM after 72 hrs by SRB assay relative to control; assay type: functional; settings: SK-OV-3, 72 h, read-out: Activity
[32] = Cytotoxicity against human Hs 578T cells assessed as cell growth at 10 uM after 72 hrs by SRB assay relative to control; assay type: functional; settings: read-out: Activity
[33] = test system: SK-MEL-2; experiment: Cytotoxicity against human SK-MEL-2 cells assessed as cell growth at 10 uM after 72 hrs by SRB assay relative to control; assay type: functional; settings: SK-MEL-2, 72 h, read-out: Activity
[34] = Cytotoxicity against human MOLT4 cells assessed as cell growth at 10 uM after 72 hrs by SRB assay relative to control; assay type: functional; settings: MOLT-4, 72 h, read-out: Activity
[35] = Cytotoxicity against human SF539 cells assessed as cell growth at 10 uM after 72 hrs by SRB assay relative to control; assay type: functional; settings: SF-539, 72 h, read-out: Activity
[36] = Cytotoxicity against human SNB75 cells assessed as cell growth at 10 uM after 72 hrs by SRB assay relative to control; assay type: functional; settings: SNB-75, 72 h, read-out: Activity

Vascular endothelial growth factor receptor 2, sequence (P35968 whole entry): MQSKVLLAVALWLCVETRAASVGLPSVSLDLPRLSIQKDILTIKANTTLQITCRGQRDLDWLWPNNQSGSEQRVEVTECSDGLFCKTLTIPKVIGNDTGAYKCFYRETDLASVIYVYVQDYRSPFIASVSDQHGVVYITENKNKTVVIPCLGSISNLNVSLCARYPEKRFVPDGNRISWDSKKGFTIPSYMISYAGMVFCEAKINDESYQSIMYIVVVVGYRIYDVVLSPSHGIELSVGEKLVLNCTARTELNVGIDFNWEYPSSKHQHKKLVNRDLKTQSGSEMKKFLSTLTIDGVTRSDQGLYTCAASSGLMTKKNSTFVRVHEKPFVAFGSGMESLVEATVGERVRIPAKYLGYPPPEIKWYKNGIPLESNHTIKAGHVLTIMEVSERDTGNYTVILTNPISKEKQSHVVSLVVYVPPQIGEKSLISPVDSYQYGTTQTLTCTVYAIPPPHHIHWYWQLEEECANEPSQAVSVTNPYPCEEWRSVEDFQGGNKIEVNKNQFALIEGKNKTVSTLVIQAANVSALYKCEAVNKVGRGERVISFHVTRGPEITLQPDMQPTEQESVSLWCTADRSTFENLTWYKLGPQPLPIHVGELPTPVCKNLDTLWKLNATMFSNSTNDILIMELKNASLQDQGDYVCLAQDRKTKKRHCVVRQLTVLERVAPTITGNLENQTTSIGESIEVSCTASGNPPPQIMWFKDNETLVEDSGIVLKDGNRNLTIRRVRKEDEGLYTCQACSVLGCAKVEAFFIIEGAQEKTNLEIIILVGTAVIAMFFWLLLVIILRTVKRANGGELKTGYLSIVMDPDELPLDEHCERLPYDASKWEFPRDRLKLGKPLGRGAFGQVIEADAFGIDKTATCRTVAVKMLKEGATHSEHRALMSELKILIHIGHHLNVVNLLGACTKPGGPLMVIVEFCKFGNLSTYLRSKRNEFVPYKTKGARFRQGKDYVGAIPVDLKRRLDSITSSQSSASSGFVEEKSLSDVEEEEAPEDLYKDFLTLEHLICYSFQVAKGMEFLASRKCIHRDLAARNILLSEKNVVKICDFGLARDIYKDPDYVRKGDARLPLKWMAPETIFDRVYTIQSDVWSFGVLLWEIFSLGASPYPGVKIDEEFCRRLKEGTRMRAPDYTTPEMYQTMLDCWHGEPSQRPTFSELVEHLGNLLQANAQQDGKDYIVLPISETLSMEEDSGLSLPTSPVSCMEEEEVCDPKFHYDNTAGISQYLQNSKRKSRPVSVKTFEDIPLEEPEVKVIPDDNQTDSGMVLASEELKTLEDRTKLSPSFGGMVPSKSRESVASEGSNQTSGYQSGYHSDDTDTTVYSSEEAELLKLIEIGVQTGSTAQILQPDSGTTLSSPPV

SMILES | growth at 10 µM [1] | growth at 10 µM [2] | growth at 10 µM [3] | growth at 10 µM [4] | growth at 10 µM [5] | growth at 10 µM [6] | growth at 10 µM [7] | growth at 10 µM [8] | growth at 10 µM [9] | growth at 10 µM [10] | growth at 10 µM [11] | growth at 10 µM [12] | growth at 10 µM [13] | growth at 10 µM [14] | growth at 10 µM [15] | growth at 10 µM [16] | growth at 10 µM [17] | Activity [18] | growth at 10 µM [19] | growth at 10 µM [20] | other results
Cc1ccc2nc(Nc3ncnc4c3cnn4-c3ccccc3)sc2c1 | 103% | 98.9% | 114% | 91.7% | 103% | 107% | 108% | 97.8% | 99.6% | 110% | 45.7% | 101% | 110% | 97.5% | 95.3% | 104% | 106% | -1% | 96% | 107% | growth at 10 µM [21]: 98.3%; growth at 10 µM [22]: 92.1%; growth at 10 µM [23]: 108%; growth at 10 µM [24]: 102%; growth at 10 µM [25]: 98.2%; growth at 10 µM [26]: 108%; growth at 10 µM [27]: 100%; growth at 10 µM [28]: 103%; growth at 10 µM [29]: 102%; growth at 10 µM [30]: 107%; growth at 10 µM [31]: 112%; growth at 10 µM [32]: 120%; growth at 10 µM [33]: 109%; growth at 10 µM [34]: 102%; growth at 10 µM [35]: 101%; growth at 10 µM [36]: 107%
Clc1ccc(-n2ncc3c(Nc4ccc(OCc5ccccc5)cc4)ncnc32)cc1 | 100% | 80.2% | 99.7% | 83.6% | 84.7% | 98.6% | 107% | 87.2% | 102% | 91.2% | 75% | 102% | 81.6% | 97.8% | 90.4% | 80.6% | 94.5% | 0% | 92.8% | 93.6% | growth at 10 µM [21]: 86.1%; growth at 10 µM [22]: 94.4%; growth at 10 µM [23]: 102%; growth at 10 µM [24]: 87.3%; growth at 10 µM [26]: 82.5%; growth at 10 µM [27]: 101%; growth at 10 µM [28]: 86.9%; growth at 10 µM [29]: 86.4%; growth at 10 µM [30]: 98%; growth at 10 µM [31]: 99.7%; growth at 10 µM [32]: 96.6%; growth at 10 µM [34]: 89.6%; growth at 10 µM [35]: 92.4%; growth at 10 µM [36]: 86.4%
c1ccc(COc2ccc(Nc3ncnc4c3cnn4-c3ccccc3)cc2)cc1 | 104% | 98.2% | 108% | 79.6% | 116% | 104% | 106% | 72.4% | 100% | 107% | 84.1% | 103% | 104% | 98.8% | 96% | 91.3% | 107% | -5% | 98.9% | 101% | growth at 10 µM [21]: 88.5%; growth at 10 µM [22]: 94.3%; growth at 10 µM [23]: 113%; growth at 10 µM [24]: 90.3%; growth at 10 µM [25]: 96%; growth at 10 µM [26]: 100%; growth at 10 µM [27]: 98.7%; growth at 10 µM [28]: 99.8%; growth at 10 µM [29]: 96.5%; growth at 10 µM [30]: 113%; growth at 10 µM [31]: 108%; growth at 10 µM [32]: 109%; growth at 10 µM [33]: 115%; growth at 10 µM [34]: 93.1%; growth at 10 µM [35]: 99.6%; growth at 10 µM [36]: 102%
O=c1sc2cc(Nc3ncnc4c3cnn4-c3ccccc3)ccc2n1Cc1ccc(Cl)cc1 | 94.5% | 71.6% | 85.6% | 50.7% | 106% | 74.6% | 101% | 86.5% | 81.8% | 92.7% | 75.7% | 71.4% | 94% | 64.4% | 90.1% | 87% | 84.8% | -7% | 75.1% | 82.8% | growth at 10 µM [21]: 55.6%; growth at 10 µM [22]: 87.2%; growth at 10 µM [23]: 86.6%; growth at 10 µM [24]: 49.6%; growth at 10 µM [25]: 85.6%; growth at 10 µM [26]: 62.3%; growth at 10 µM [27]: 84.4%; growth at 10 µM [28]: 66.9%; growth at 10 µM [29]: 63.5%; growth at 10 µM [30]: 87.9%; growth at 10 µM [31]: 101%; growth at 10 µM [32]: 81.1%; growth at 10 µM [33]: 88%; growth at 10 µM [34]: 58.6%; growth at 10 µM [35]: 79.2%; growth at 10 µM [36]: 88.3%
O=C(NC1CCCCC1)c1ccc(Nc2ncnc3c2cnn3-c2ccccc2)cc1 | 54.6% | 88.5% | 36.9% | 57.7% | 70.2% | 54.3% | 59.8% | 66.6% | 71.1% | 65.4% | 64% | 19.1% | -66.5% | 37.7% | 62.2% | 30.3% | 74.2% | 7% | 80.3% | 69.1% | growth at 10 µM [21]: 53.3%; growth at 10 µM [22]: 75.4%; growth at 10 µM [23]: 87.4%; growth at 10 µM [24]: 73.2%; growth at 10 µM [25]: 48.7%; growth at 10 µM [26]: 76.8%; growth at 10 µM [27]: 72.9%; growth at 10 µM [28]: 106%; growth at 10 µM [29]: 89.5%; growth at 10 µM [30]: 21.6%; growth at 10 µM [31]: 54%; growth at 10 µM [32]: 0.22%; growth at 10 µM [33]: 79.1%; growth at 10 µM [34]: 89.5%; growth at 10 µM [35]: 43.7%; growth at 10 µM [36]: -20.4%
